Data as given in PubChem BioAssay AID449750 (Broad Institute, 2010).
Calls of active or inactive are those of the source. The rule behind the calls is not given here.

Assay: non-covalent RecA intein splicing inhibitors, dose response, biochemical, cell-free, fluorescence, secondary screen (AID 449750)

Structure (SMILES)	AC50
CC1=NN(Cc2ccccc2)C(=O)C1C(c1ccc(Cl)cc1)C(C#N)C#N (centres undefined)	31 µM
Cn1c(/N=C/c2c(O)ccc3ccccc23)nc2ccccc21	10.6 µM
CCOC(=O)CSc1nnc(NCC(=O)OC)c(=O)[nH]1	> 38 µM (inactive)
CC1=C(CC(=O)c2ccccc2)C(=O)c2ccccc2C1=O	16.6 µM
COc1cc(/C=N\NC(=O)c2ccccc2F)ccc1Oc1ccc([N+](=O)[O-])cn1	> 38 µM (inactive)
O=C(Cc1cc(=O)[nH][nH]1)N/N=C/c1cccc2ccccc12	17.4 µM
CN1CCN(C2=C(Cl)C(=O)N(c3ccc(Cl)cc3)C2=O)CC1	3.49 µM
O=C(/C=C/c1ccco1)c1ccc(NC(=O)C23CC4CC(CC(C4)C2)C3)cc1	12.9 µM
Oc1ccc(O)c2c1C1c3ccccc3C2c2ccccc21	38.4 µM
O=C1COc2ccc(C(=O)CCl)cc2N1	> 38 µM (inactive)
Cc1ccc(C(=O)NC2(O)C(=O)c3ccccc3C2=O)cc1C	6.09 µM
Cc1ccc(SCc2[nH]nc3c2C(c2ccco2)C(C#N)=C(N)O3)cc1 (centres undefined)	14.8 µM
C/C(=N\NC(=O)c1ccncc1)c1cc2ccccc2oc1=O	> 38 µM (inactive)
CCOc1ccccc1C1C(C#N)=C(N)Nc2onc(-c3ccccc3)c21 (centres undefined)	33.4 µM
COc1ccc(C(=O)/C=C/Sc2nc3ccccc3o2)cc1	38.6 µM
Oc1ccc(C=Nc2ccc3ncccc3c2)c(O)c1	3.75 µM
O=C1C(Cl)=C(NCc2cccnc2)C(=O)c2ccccc21	13.6 µM
O=C(Oc1ccc(N2C(=O)C3C4CCC(C4)C3C2=O)cc1)c1ccco1 (centres undefined)	> 38 µM (inactive)
Cc1cc[n+](C2=C([O-])c3ccccc3C(=O)/C2=N\S(=O)(=O)c2cccs2)cc1C	4.29 µM
COC(=O)c1c(NC(=O)/C=C/C(=O)O)sc(C)c1-c1ccc(C)c(C)c1	26.5 µM
Cc1nc(Nc2ccc(O)cc2)c2c3c(sc2n1)CCCC3	> 38 µM (inactive)
O=C1C=C(Nc2ccccc2)c2ccccc2C1=O	5.18 µM

Structure (SMILES)	AC50
COc1cc2c(cc1OC)-c1c(OC)c(OC)cc3c1[C@H](C2)N(C)CC3	27 µM
CN(C(=O)c1ccc(S(=O)(=O)c2cccc(Cl)c2)c([N+](=O)[O-])c1)C1CCCCC1	13.7 µM
CN1CCN(Cc2cc(=O)oc3ccc(Cl)cc23)CC1	> 38 µM (inactive)
CN(C)c1ccc(C(=O)n2nnc3ccccc32)cc1	> 38 µM (inactive)
N#CC1=C(N)Oc2n[nH]c(-c3cccs3)c2C1c1ccoc1 (centres undefined)	> 38 µM (inactive)
CCCCCCCCCCOC(=O)Cn1c(COc2ccccc2)[n+](C)c2ccccc21	7.97 µM
NS(=O)(=O)c1ccc(N=Cc2c(O)c3ccccc3oc2=O)cc1	> 38 µM (inactive)
Cc1[nH][nH]c(=O)c1C(c1cc(Br)ccc1O)c1c(C)[nH][nH]c1=O	8.35 µM
CC(C)c1nnc(NC(=O)c2nc(S(=O)(=O)Cc3ccccc3)ncc2Cl)s1	15 µM
COc1ccc(C(=O)Nc2ccc(O)c3ccccc23)cc1	3.85 µM
CC(C)N(c1ccccc1)c1ccc(NC(=O)CCl)cc1	1.45 µM
Cc1onc(-c2ccccc2)c1-c1nc2ccccc2c(=O)o1	> 38 µM (inactive)
C/C(CC(=O)Nc1cc(C)ccn1)=N\NC(=O)c1ccccc1C	> 38 µM (inactive)
COc1ccc(CC(=O)O/N=C(\N)Cc2cccc3ccccc23)cc1OC	> 38 µM (inactive)
CCCSc1nnc(Sc2nnnn2-c2ccccc2)s1	14.2 µM
Fc1ccc(Nc2nc(Oc3ccccc3F)nc(N3CCCC3)n2)cc1	> 38 µM (inactive)
Cc1ccc(N2C(=O)C(Cl)=C(N3CCOCC3)C2=O)cc1Cl	> 38 µM (inactive)
O=C(CCl)Nc1cccc(-c2cnc3ccccc3n2)c1	16.5 µM
Cc1ccc(S(=O)(=O)/N=C2\C=C(Nc3cccc(C(=O)O)c3)C(=O)c3ccccc32)c(C)c1	> 38 µM (inactive)
Cc1nnc(N/N=C/c2cccc(OCc3ccc(Cl)c(Cl)c3)c2)n1N	23.4 µM
COc1ccc(C2CC(c3cccs3)=NN2C(=O)CSC2=NCCS2)cc1 (centres undefined)	38.2 µM
CC(=O)N1CCC2(CC1)C(C#N)=C(N)Oc1n[nH]c(C)c12	> 38 µM (inactive)

Structure (SMILES)	AC50
CCOC(=O)Cn1cc(/C=N/NC(=O)CC#N)c2ccccc21	> 38 µM (inactive)
CC(C)N(CC(=O)Nc1ccc(Cl)cc1C(F)(F)F)C(=O)CCl	12.9 µM
N#CC1=C(N)Oc2n[nH]c(-c3cccs3)c2C1c1ccccc1C(=O)O (centres undefined)	20.9 µM
O=S(=O)(c1ccc(Cl)c(Cl)c1)c1snnc1-c1ccccc1	9.72 µM
CCc1ccc(S(=O)(=O)/N=C2\C=C(NS(=O)(=O)c3ccccc3)C(=O)c3ccccc32)cc1	4.45 µM
CCn1c(-c2ccccc2)c(C(=O)CCl)c2ccccc21	6.01 µM
Cc1cc(C(=O)c2ccccc2)c(NC(=O)CCl)s1	7.09 µM
Cc1[nH]nc2c1C1(CCC(c3ccccc3)CC1)C(C#N)=C(N)O2 (centres undefined)	> 38 µM (inactive)
Cc1cc(C)cc(Cn2ncc(Cl)c(Cl)c2=O)c1	1.38 µM
Cc1sc2ncnc(Sc3nnnn3-c3ccccc3)c2c1C	> 38 µM (inactive)
CC1=NNC(=O)C1C(c1ccccc1)C(C#N)C#N (centres undefined)	> 38 µM (inactive)
CC(=O)Oc1ccc(/C=C2/C(=O)N(c3ccccc3)N=C2C)cc1	4.09 µM
COc1ccc(-n2c(C)cc(C(=O)CCl)c2C)cc1	13.6 µM
CCOC(=O)c1nnc(-c2cccs2)nc1Oc1ccc(Cl)cc1	> 38 µM (inactive)
CCOC(=O)C(C#N)C(c1cccnc1)c1c(C)[nH][nH]c1=O (centres undefined)	> 38 µM (inactive)
COc1cccc(Nc2c([N+](=O)[O-])cncc2[N+](=O)[O-])c1	> 38 µM (inactive)
[O-][N+]1=c2ccc(Nc3ccccc3)cc2=NC12CCCCC2	16.7 µM
O=C(c1ccco1)c1coc2c1cc(O)c1ccccc12	26.2 µM
Cc1cc(C)n2nc(CNS(=O)(=O)c3c(F)c(F)c(F)c(F)c3F)nc2n1	> 38 µM (inactive)
Cc1ccc(S(=O)(=O)Nc2ccc(O)c3ccccc23)c(C)c1	0.409 µM
O=C(N/N=C/c1c(O)n(C2CCCCC2)c(=S)[nH]c1=O)c1ccccc1O	4.36 µM
COc1cccc(-c2[nH]nc3c2C(c2ccoc2)C(C#N)=C(N)O3)c1 (centres undefined)	28.8 µM

Structure (SMILES)	AC50
Cc1cccc(NC2=C(Cl)C(=O)OC2OC(=O)c2ccco2)c1 (centres undefined)	> 38 µM (inactive)
COC(=O)c1ccccc1-c1ccc(C(c2c(C)[nH][nH]c2=O)c2c(C)[nH][nH]c2=O)o1	3.62 µM
Cc1nnc(NC(=O)c2nc(S(=O)(=O)Cc3ccccc3C)ncc2Cl)s1	> 38 µM (inactive)
Cc1cc(-c2ccccc2)nc2cc(C(=O)N(Cc3ccccc3)Cc3ccccc3)nn12	18.8 µM
CC1=NN(c2nc(-c3ccccc3)cs2)C(=O)C1	18.8 µM
O=C1/C(=C/Nc2ccc3c(c2)OCO3)CCc2ccccc21	4 µM
O=C(CCl)N(Cc1ccccc1)c1ccccc1	4.16 µM
C=CCn1c(NC(=O)c2ccc(Br)o2)c(S(=O)(=O)c2ccccc2)c2nc3ccccc3nc21	> 38 µM (inactive)
Cc1ccc(NC(=O)c2cc(NC(=O)/C=C\C(=O)O)ccc2N2CCCCC2)cc1	9.66 µM
Cc1ccccc1N1C(=O)c2ccccc2C1Nc1cccnc1 (centres undefined)	> 38 µM (inactive)
CC(=O)Nc1ccccc1NC(=O)C/C(C)=N/NC(=O)C(=O)N1CCCCC1	> 38 µM (inactive)
CC1=NN(c2ccc(S(=O)(=O)O)cc2Cl)C(=O)C1	3.66 µM
Cc1nc2ccccc2c2c1C(=O)N(C(C)C)C2=O	> 38 µM (inactive)
CC(C)(C)c1ccc(S(=O)(=O)/N=C2\C=C(NS(=O)(=O)c3ccccc3)C(=O)c3ccccc32)cc1	5.5 µM
O=C(CCl)Nc1cccc(CP(=O)(c2ccccc2)c2ccccc2)c1	17.8 µM
Cn1c2ccccc2c2cc(C(=O)NNC(=O)CCl)sc21	16.2 µM
O=C(NC1=C(NC2CCS(=O)(=O)C2)C(=O)c2ccccc2C1=O)c1ccccc1 (centres undefined)	1.17 µM
O=C(CSc1nnc(-c2ccccc2Cl)o1)Oc1ccc(Br)cc1	> 38 µM (inactive)
Cc1nn(CCc2nn[nH]n2)c2nc(-c3ccc(C4CCCCC4)cc3)cc(C(F)(F)F)c12	24.6 µM
Clc1ccc(CSC(Cn2ccnc2)c2ccc(Cl)cc2Cl)cc1 (centres undefined)	8.47 µM
CCc1ccc(C2C(C#N)=C(N)C(C#N)(C#N)C3=CCC(C(C)(C)C)CC32)cc1 (centres undefined)	> 38 µM (inactive)
Cc1cc(C(=O)CCl)c(C)n1CC1COc2ccccc2O1 (centres undefined)	19.4 µM

Structure (SMILES)	AC50
CC(=O)NC1C(=O)N(CCN2CCOCC2)c2ccc(Cl)cc21 (centres undefined)	34.1 µM
COc1c(O)ccc2c1CN1CCc3cc4c(cc3C1C2)OCO4 (centres undefined)	> 38 µM (inactive)
CC1=C(C)CC2(SC1)C(=O)N(c1ccccc1)N=C2N (centres undefined)	> 38 µM (inactive)
CC(C)(C)c1cc(NC(=O)CCl)n(-c2ccccc2)n1	22.2 µM
COc1ccc2ccc3c(c2c1)N=C[C@]1(O3)N(C)c2ccccc2C1(C)C	> 38 µM (inactive)
Cc1nn(-c2ccccc2)c(Cl)c1CN(C(=O)CCl)c1cccc2ccccc12	0.933 µM
C=CS(=O)c1sc(Cl)c(N2CCOCC2)c1[N+](=O)[O-] (centres undefined)	> 38 µM (inactive)
O=C(c1cccs1)[C@@H]1[C@@H]2C(=O)N(Cc3ccc4c(c3)OCO4)C(=O)[C@@H]2C2c3ccccc3C=CN21 (some centres undefined)	3.81 µM
OC(CNCCC1C=Nc2ccccc21)Cn1c2ccc(Cl)cc2c2cc(Cl)ccc21 (centres undefined)	8.48 µM
CS/C(=C\[N+](=O)[O-])Nc1ccc(OC(F)(F)F)cc1	> 38 µM (inactive)
CCc1oc2ccccc2c1C(=O)c1cc(Br)c(O)c(Br)c1	9.46 µM
CN1C=C/C(=C\c2cc[n+](C)c3ccccc23)c2ccccc21	29.3 µM
c1ccc(CNc2nc(NCc3ccccc3)c3ccccc3n2)cc1	7.61 µM
O=C1C(C2=C(O)c3ccccc3C2=O)=Nc2ccccc21	2.98 µM
O=C(CCl)Nc1c2c(nn1-c1ccccc1)CSC2	29.2 µM
CCOc1cc(C(c2c(C)[nH][nH]c2=O)c2c(C)[nH][nH]c2=O)ccc1OS(=O)(=O)c1ccc(C)cc1	4.78 µM
c1ccc(Nc2nc(NCc3ccco3)c3ccccc3n2)cc1	10.8 µM
O=[N+]([O-])c1ccc(N2CCOCC2)c2ccncc12	> 38 µM (inactive)
O=C1CCN(S(=O)(=O)c2ccccc2)N1	> 38 µM (inactive)
N#C/C(=C\c1cc(Cl)c(OCc2ccc(Cl)cc2)c(Cl)c1)C(N)=O	9.11 µM
COC(=O)N/N=C\c1ccc(OC(=O)c2ccco2)cc1	> 38 µM (inactive)
